Here are results for one compound from ChEMBL document CHEMBL4304783, “Discovery of a Novel Selective Dual Peroxisome Proliferator-Activated Receptor α/δ Agonist for the Treatment of Primary Biliary Cirrhosis” (ACS Med Chem Lett, 2019).

A short description of series [1]: Oral bioavailability in Sprague-Dawley rat at 10 mg/kg measured upto 24 hrs by LC-MS/MS analysis. The note with it: in vivo.
Series [2] in a line: Volume of distribution at steady state in C57BL/6J mouse at 1 mg/kg, iv measured upto 24 hrs by LC-MS/MS analysis. Format: ADME, organism-based. The note with it: in vivo, read-out: Vdss.
Series [3] can be described thus: Cmax in Sprague-Dawley rat at 10 mg/kg, po measured upto 24 hrs by LC-MS/MS analysis. Format: ADME, organism-based. Details: dose 10 mg/kg, route oral. The note with it: in vivo.
Series [4] can be described thus: Apparent permeability across apical to basolateral side in human Caco2 cells at 2 uM incubated for 120 mins by LC-MS/MS analysis. Format: ADME, cell-based. The note with it: Caco-2.
In another series the target is Cytochrome P450 2C9 (Homo sapiens, UniProt P11712). The series can be described thus: Inhibition of CYP2C9 in human liver microsomes using diclofenac as substrate incubated for 10 mins followed by substrate addition further incubated for 10 mins by LC-MS/MS analysis. Format: ADME.
Series [5] is described as follows: Efflux ratio of apparent permeability across basolateral to apical over apical to basolateral side in human Caco2 cells at 2 uM incubated for 120 mins by LC-MS/MS analysis. The series is classed as ADME, cell-based. The note with it: Caco-2.
Series [6] deals with T1, Peroxisome proliferator-activated receptor delta (Homo sapiens) (UniProt Q03181).
T1 sequence (whole entry): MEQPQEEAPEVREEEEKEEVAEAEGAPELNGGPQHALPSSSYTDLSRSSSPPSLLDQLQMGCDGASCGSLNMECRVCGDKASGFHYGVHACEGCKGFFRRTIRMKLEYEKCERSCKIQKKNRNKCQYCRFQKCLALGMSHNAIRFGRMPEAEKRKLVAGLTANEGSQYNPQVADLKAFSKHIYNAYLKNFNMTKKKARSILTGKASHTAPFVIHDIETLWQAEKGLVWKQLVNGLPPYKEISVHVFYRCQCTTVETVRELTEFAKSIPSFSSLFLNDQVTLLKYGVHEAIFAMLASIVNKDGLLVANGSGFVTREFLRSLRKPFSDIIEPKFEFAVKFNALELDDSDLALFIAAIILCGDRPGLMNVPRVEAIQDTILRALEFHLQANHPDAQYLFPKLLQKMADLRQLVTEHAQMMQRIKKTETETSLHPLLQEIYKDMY
The series can be described thus: Agonist activity at PPARbeta (unknown origin) incubated for 3 to 16 hrs by pathhunter nuclear hormone receptor assay relative to L-165,041.

For another series, the system named is Rattus norvegicus. The experiment in a line: Hepatoprotective activity in Sprague-Dawley rat assessed as reduction in ANIT-stimulated fibrosis area at 3 mg/kg, ig administered for 8 days by hematoxylin and eosin staining based mopho-metric analysis relative to control. The series is classed as functional. More on the design: scale not given: the % may be the effect or the level left.

A short description of series [7]: Protein binding in human plasma at 2 uM incubated for 4 hrs by LC-MS/MS analysis. The series is classed as ADME, cell-free.
Series [8] can be described thus: AUC (0 to last) in C57BL/6J mouse at 10 mg/kg, po measured upto 24 hrs by LC-MS/MS analysis. Format: ADME, organism-based. More on the design: dose 10 mg/kg, route oral, time 0 - last. The note with it: in vivo.
Series [9] in a line: Tmax in Sprague-Dawley rat at 10 mg/kg, po measured upto 24 hrs by LC-MS/MS analysis. The series is classed as ADME, organism-based. The note with it: in vivo.
A short description of series [10]: Cmax in C57BL/6J mouse at 10 mg/kg, po measured upto 24 hrs by LC-MS/MS analysis. The series is classed as ADME, organism-based. The note with it: in vivo. More on the design: dose 10 mg/kg, route oral.
Series [11] is described as follows: Stability in human plasma assessed as remaining compound incubated for 2 hrs. Format: ADME, cell-free. The note with it: read-out: Stability.
The nature of series [12]: Stability in rat plasma assessed as remaining compound incubated for 2 hrs. The note with it: read-out: Stability. Format: ADME, cell-free.
Series [13] is described as follows: Half life in Sprague-Dawley rat at 1 mg/kg, iv measured upto 24 hrs by LC-MS/MS analysis. The series is classed as ADME, organism-based. The note with it: in vivo.
Series [14] has as its target T2, Peroxisome proliferator-activated receptor alpha (Homo sapiens, UniProt Q07869).
T2 sequence (Q07869 whole entry): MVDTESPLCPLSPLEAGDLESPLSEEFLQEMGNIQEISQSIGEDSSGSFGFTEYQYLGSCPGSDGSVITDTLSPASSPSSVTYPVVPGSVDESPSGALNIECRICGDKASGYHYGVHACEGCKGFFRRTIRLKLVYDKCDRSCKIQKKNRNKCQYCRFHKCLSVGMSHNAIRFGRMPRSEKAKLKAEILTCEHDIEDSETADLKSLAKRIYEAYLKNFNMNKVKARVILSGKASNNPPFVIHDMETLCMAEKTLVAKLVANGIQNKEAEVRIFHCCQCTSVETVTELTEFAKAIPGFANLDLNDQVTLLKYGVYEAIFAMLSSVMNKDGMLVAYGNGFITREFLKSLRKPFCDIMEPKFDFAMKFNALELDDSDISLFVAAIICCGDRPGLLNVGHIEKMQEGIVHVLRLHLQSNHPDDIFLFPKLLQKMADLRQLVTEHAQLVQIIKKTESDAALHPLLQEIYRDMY
The series can be described thus: Agonist activity at PPARalpha (unknown origin) incubated for 3 to 16 hrs by pathhunter nuclear hormone receptor assay.

The target in series [15] is T3, Peroxisome proliferator-activated receptor delta (Homo sapiens, UniProt Q03181).
T3 sequence (Q03181 whole entry): T1 sequence (whole entry)
The series can be described thus: Agonist activity at PPARbeta (unknown origin) incubated for 3 to 16 hrs by pathhunter nuclear hormone receptor assay.

Series [16] in a line: Oral bioavailability in C57BL/6J mouse at 10 mg/kg upto 24 hrs by LC-MS/MS analysis. The note with it: in vivo.
Series [17] can be described thus: AUC (0 to last) in Sprague-Dawley rat at 10 mg/kg, po measured upto 24 hrs by LC-MS/MS analysis. The series is classed as ADME, organism-based. Details: dose 10 mg/kg, route oral, time 0 - last. The note with it: in vivo.
In series [18] the target is T4, Peroxisome proliferator-activated receptor gamma (Homo sapiens) (UniProt P37231).
T4 sequence (whole entry): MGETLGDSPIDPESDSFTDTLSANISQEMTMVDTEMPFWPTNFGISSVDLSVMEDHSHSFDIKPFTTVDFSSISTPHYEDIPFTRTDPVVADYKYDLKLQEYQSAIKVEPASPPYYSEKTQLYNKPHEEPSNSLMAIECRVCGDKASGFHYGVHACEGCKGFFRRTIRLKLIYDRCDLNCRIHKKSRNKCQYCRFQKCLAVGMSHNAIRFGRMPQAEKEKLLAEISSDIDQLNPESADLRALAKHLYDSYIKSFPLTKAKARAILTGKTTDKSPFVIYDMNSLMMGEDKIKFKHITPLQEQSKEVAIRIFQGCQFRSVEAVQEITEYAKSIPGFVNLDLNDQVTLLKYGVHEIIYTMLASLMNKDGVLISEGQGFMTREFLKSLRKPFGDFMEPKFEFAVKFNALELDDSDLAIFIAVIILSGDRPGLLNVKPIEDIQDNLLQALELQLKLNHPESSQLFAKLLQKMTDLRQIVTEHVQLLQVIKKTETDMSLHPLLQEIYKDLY
The series can be described thus: Agonist activity at PPARgamma (unknown origin) incubated for 3 to 16 hrs by pathhunter nuclear hormone receptor assay relative to Troglitazone.

Chain of Cytochrome P450 2C9 (P11712 whole entry): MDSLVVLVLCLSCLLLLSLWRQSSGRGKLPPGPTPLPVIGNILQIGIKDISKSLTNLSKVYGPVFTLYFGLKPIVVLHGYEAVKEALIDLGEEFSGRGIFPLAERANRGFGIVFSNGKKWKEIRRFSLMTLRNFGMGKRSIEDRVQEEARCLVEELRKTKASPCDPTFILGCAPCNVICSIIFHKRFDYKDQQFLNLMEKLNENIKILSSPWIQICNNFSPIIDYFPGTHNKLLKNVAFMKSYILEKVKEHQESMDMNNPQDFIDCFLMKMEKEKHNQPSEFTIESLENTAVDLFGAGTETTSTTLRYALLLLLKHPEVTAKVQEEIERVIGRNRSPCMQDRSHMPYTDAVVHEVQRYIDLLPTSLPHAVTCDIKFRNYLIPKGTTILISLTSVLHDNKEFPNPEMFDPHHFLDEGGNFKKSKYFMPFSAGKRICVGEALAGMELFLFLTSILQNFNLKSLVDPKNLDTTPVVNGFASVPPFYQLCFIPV

Regarding `Cc1cc(Cc2cc(-c3ccc(Br)cc3)on2)cc(C)c1OC(C)(C)C(=O)O`, the bioavailability in series [1] worked out at 53.3%; in series [16] it was 59.8%. In addition, the Vd in [2] worked out at 0.53 L/kg. Further, the results for the Cmax in series [3] and in series [10] were 65.3 µM and 52 µM, respectively. In [4], the Papp A→B at 2 h, 2 µM came out at 0.5 ×10⁻⁶ cm/s. The compound further registered an IC50 at Cytochrome P450 2C9 of 20000 nM. The efflux ratio at 2 h, 2 µM in [5] is 0.4. Moreover, the Activity turned out to be 79% in [6], 28% with Rattus norvegicus and 110% in [18]. Further, the fraction unbound at 4 h, 2 µM in series [7] is under 0.001. Besides, the AUC(0-t) at 24 h in series [8] was 63.2 µM·h; in [17] it was 561 µM·h. In addition, in series [9], the Tmax stood at 1.33 h. Also, the results for the remaining at 2 h in series [11] and in series [12] were 88% and 96%, respectively. Also, the half-life in series [13] was 6 h. Besides, the EC50 in series [14] was 8 nM; in series [15], 5 nM.
